The values below come from patent publication US20220202818A1, “COMBINATION WITH CHECKPOINT INHIBITORS TO TREAT CANCER” (The Regents of the University of Michigan, priority 2019, published 2022).

The structures appear in SMILES notation.

For experiment [1], the system named is SCC7 head and neck tumors. Nature of the experiment: In vivo study in C3H mice bearing SCC7 head and neck tumors. On the procedure:
(§1) Female 6- to 7-week old C3H mice or BALB/c mice were implanted subcutaneously with 1×10^6 cultured SCC7 cells or CT-26 (murine colorectal carcinoma) cells into the region of the right axilla. Female 6- to 7-week old BALB/c mice were implanted with 2×10^6 cultured EMT-6 (murine mammary carcinoma) cells subcutaneously into the mammary fat pad. Mice were randomized into treatment groups and treatments initiated when tumors reached 60 to 100 mg. MOL-211 was administered daily by oral gavage at a dose of 50 mg/kg for the duration of the study and was prepared as a 5 mg/mL solution in 1:2 PG:1% Tween80/Na3PO4, based upon individual animal body weight (0.2 mL/20 g). PD-1 antibody was purchased from BioXcell (Lebanon, N.H.) and administered intraperitoneally (IP) at a dose of 10 mg/kg every third day. Subcutaneous tumor volume and body weights were measured three times a week. Tumor volumes were calculated by measuring two perpendicular diameters with calipers and using the formula: tumor volume=(length×width^2)/2. Individual animals were dosed until progression, defined as the time at which tumor burden reached 1000 mg. […] Animal body weight was monitored three times weekly (FIG. 4D, FIG. 5D, FIG. 6C).

In another experiment the test system is KPC pancreatic tumors. Nature of the experiment: In vivo efficacy of MOL-211 alone and with PD-1 antibody in mice bearing KPC pancreatic tumors. On the procedure:
In vivo studies were conducted to evaluate the efficacy of MOL-211 alone and in combination with PD-1 antibody in mice bearing KPC pancreatic tumors (FIG. 1A-FIG. 1E). Mice were treated daily with MOL-211 (50 mg/kg) administered by oral gavage; anti-PD-1 antibody was administered twice a week via IP injection. Mice were analyzed subsequent to tumor implantation for over 90 days using a vehicle control; MOL-211 at 50 mg/kg; anti-PD-1 antibody at 10 mg/kg; and a combination of MOL-211 and anti-PD-1.
A partial responder (PR) is defined as a tumor that regressed to 50% of the baseline tumor volume. A complete responder (CR) is defined as a tumor below the limits of palpation (40 mg). The ΔT/ΔC ratio is the ratio of tumor volume change (treated/control) from first day of treatment to last day of treatment. Median ILS represents median increase in lifespan.

Experiment [2] deals with EMT-6 (murine mammary carcinoma) tumors. Put plainly: In vivo study in female BALB/c mice bearing EMT-6 (murine mammary carcinoma) tumors. Conditions: EMT-6 tumor-bearing mice; FIG. 6B. How it is done:
as §1

The subject of experiment [3] is CT-26 (murine colorectal carcinoma) tumors. Put plainly: In vivo study in BALB/c mice bearing CT-26 (murine colorectal carcinoma) tumors. Conditions: FIG. 5A. On the procedure: as §1
The next experiment deals with PD-L1. Put plainly: Western blot of PD-L1 protein in KPC-2 cells treated in vitro. The settings on record: KPC-2 cells in culture; 10 micromolar; 24 and 48 hours; compared to DMSO. In kind it is cell-based. On the procedure: KPC-2 cells were also grown in culture and treated for either 24 or 48 hours with DMSO or MOL-211 at a final concentration of 10 micromolar. Cells were harvested and manually homogenized in lysis buffer [25 mmol/L Tris-HCl (pH7.6), 150 mmol/L NaCl, 1% Nonidet P-40, 10% glycerol, 1 mmol/L dithiothreitol, and protease and phosphatase inhibitors], rocked for 30 minutes at 4° C., and centrifuged at 14,000 rpm for 20 min at 4° C. Protein concentration was determined by BioRad Protein Assays and lysates were subsequently subjected to SDS gel electrophoresis. Proteins were transferred to polyvinylidene fluoride membranes and probed with a primary antibody recognizing PD-L1 (Abcam, Cambridge, UK) and beta-actin. After incubation with anti-rabbit HRP-linked secondary antibody (Jackson ImmunoResearch Laboratories, West Grove, Pa.), proteins were detected using chemiluminescence (GE Healthcare, Chicago, Ill.).
In general terms: In western blotting, separated proteins are transferred to a membrane and probed.

For the molecule `CS(=O)(=O)Nc1cc(-c2ccc3ncnc(Nc4ccc(F)c(Cl)c4)c3c2)cnc1Cl` [MOL-211, N-(2-chloro-5-(4-((3-chloro-4-fluorophenyl)amino)quinazolin-6-yl)pyridin-3-yl)methanesulfonamide], the “calculated increase in lifespan (ILS)” value in experiment [1] (C3H mice bearing SCC7 tumors, MOL-211 50 mg/kg, PD-1 antibody 10 mg/kg, FIG. 4A) is given as 206%; in experiment [3] (BALB/c mice bearing CT-26 tumors, MOL-211 50 mg/kg, PD-1 antibody 10 mg/kg), 22%. Further, the “reduction in mean tumor volumes” value in experiment [1] (mice bearing SCC7 tumors, compared with PD-1 antibody monotherapy, FIG. 4B) is listed as “superior to PD-1 antibody monotherapy”. Moreover, the “Median ILS (median increase in lifespan)” value with KPC pancreatic tumors worked out at 82%. Further, the “ΔT/ΔC (Day 19)” value in the experiment with KPC pancreatic tumors (ratio of tumor volume change (treated/control) from first to last day of treatment, MOL-211 50 mg/kg daily oral gavage, PD-1 antibody 10 mg/kg/kg IP) stood at 21%. In addition, the “CRs (complete responders)” value in the experiment with KPC pancreatic tumors (tumor below the limits of palpation (40 mg)) worked out at 0%. Also, the “PRs (partial responders)” value in the experiment with KPC pancreatic tumors (tumor regressed to 50% of baseline tumor volume) was found to be 0. The “reduction in tumor volume compared to vehicle control” value in experiment [2] was “did not result in a statistically significant reduction in tumor volume”. Moreover, the increase in survival entry in experiment [3] (mice bearing CT-26 tumors) was “Neither single agent nor combination treatment with MOL-211 and PD-1 antibody resulted in a therapeutically meaningful increase in survival”. Also, the “PD-L1 protein levels (western blot)” value in the experiment with PD-L1 is “reduced PD-L1 protein levels”.
